For this assay, the target named is T1, LXRα (Homo sapiens, UniProt Q13133).
T1 construct: human LXRalpha (amino acid 205-447); expressed in transfected cells; host or cells: U2/OS osteosarcoma cells electroporated with pSGGAL-LXRalpha (pSG5 vector)
T1 sequence (Q13133 205-447): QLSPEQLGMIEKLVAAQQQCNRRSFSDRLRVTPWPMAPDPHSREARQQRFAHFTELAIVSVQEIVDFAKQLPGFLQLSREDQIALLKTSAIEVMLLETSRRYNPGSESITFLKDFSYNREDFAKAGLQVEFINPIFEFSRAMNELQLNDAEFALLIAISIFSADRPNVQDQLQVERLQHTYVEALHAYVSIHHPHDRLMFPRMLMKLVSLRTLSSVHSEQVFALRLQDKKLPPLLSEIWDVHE
Briefly: Transactivation (reporter gene) assay in U2/OS cells. Format: cell-based. As to conditions: GAL4-LXRalpha LBD luciferase reporter, U2/OS osteosarcoma cells, 48 h. The method, then:
Expression vectors were prepared by inserting the ligand binding domain cDNA (complementary DNA) of human LXRalpha (amino acid 205-447) and LXRbeta (amino acid 216-461) in frame with, 3′ to the yeast GAL4 transcription factor DNA binding domain and the nuclear localization signal from the T-antigen of Polyoma Virus in the eucaryotic expression vector pSG5 (Stratagene). The resulting expression vectors pSGGAL-LXRalpha and pSGGAL-LXRbeta were used in cotransfection experiments together with the pGL3 luciferase reporter plasmid containing a minimal SV40 promoter (Promega) and five copies of the UAS GAL4 recognition site. 2.5 μg pSGGAL-LXRalpha or beta were mixed with […] pGL3 5xUAS and 22.5 μg pBluscript (Stratagene) in 0.95 mL ice cold PBS containing approx. 4-9 milj. U2/OS osteosarcoma cells. After a five minute incubation on ice the cell/DNA mixture was electroporated in 0.4 cm cuvettes at 960 μF, 230 V using a BioRad electroporator and diluted to 0.32 milj cells/mL in complete DMEM [Dulbecco's Modified Eagle Medium w/o phenol red, (Gibco 11880-028) including 10% FBS (Foetal Bovine Serum), 1% PEST (Penicillin Streptomycin), 20 mM Hepes, 2 mM L-Glutamine and 0.36% Glucose Gibco 31966-021] medium. […] Luciferase activity was measured as Luminescence in the Wallac Victor reader after 15 min. incubation at room temperature. […]
Background: In a reporter assay the amount or activity of a reporter protein is the signal.

On to `CCCCN1C(=S)C(Nc2ccc(OC(F)F)cc2)=C(c2ccccc2)S1(=O)=O` [Example 1, 2-Butyl-4-{[4-(difluoromethoxy)phenyl]amino}-5-phenylisothiazole-3(2H)-thione 1,1-dioxide], for which the EC50 is 960 nM.

The EC50 is the midpoint of the concentration-response curve. A high value points to a less potent agent.

For the origin of these results see US20080125396A1, “Derivatives of Isothiazol-3(2H)-Thione 1,1-Dioxides as Liver X Receptor Modulators” (AtraZeneca AB, priority 2005, published 2008).
